From PubChem BioAssay AID1259407 (Chemical Carcinogenesis Research Information System (CCRIS), 2018)
Activity calls are given as the source filed them. The rule behind the calls is not given here.

Tested on: CCRIS mutagenicity, Ames/micronucleus/aberration tests
Test: CCRIS mutagenicity studies
Conditions: Test System: AMES SALMONELLA TYPHIMURIUM
[1] = Strain/Indicator: TA97, Metabolic Activation: NONE, Method: STANDARD PLATE
[2] = Strain/Indicator: TA98, Metabolic Activation: NONE, Method: PREINCUBATION
[3] = Strain/Indicator: TA98, Metabolic Activation: NONE, Method: STANDARD PLATE
[4] = Strain/Indicator: TA98, Metabolic Activation: RAT, LIVER, S-9, AROCLOR 1254, Method: STANDARD PLATE
[5] = Strain/Indicator: TA100, Metabolic Activation: NONE, Method: STANDARD PLATE
[6] = Strain/Indicator: TA100, Metabolic Activation: RAT, LIVER, S-9, AROCLOR 1254, Method: STANDARD PLATE
[7] = Strain/Indicator: TA1535, Metabolic Activation: NONE, Method: STANDARD PLATE
[8] = Strain/Indicator: TA1537, Metabolic Activation: NONE, Method: STANDARD PLATE
[9] = Strain/Indicator: TA1538, Metabolic Activation: NONE, Method: STANDARD PLATE

Cc1cc(=O)n(-c2ccccc2)n1C
mutagenic call [1]: inactive; negative
mutagenic call (Strain/Indicator: TA97, Metabolic Activation: RAT, LIVER, S-9, AROCLOR 1254, Method: STANDARD PLATE): inactive; negative
mutagenic call (Strain/Indicator: TA97A, Metabolic Activation: NONE, Method: STANDARD PLATE): inactive; negative
mutagenic call (Strain/Indicator: TA97A, Metabolic Activation: RAT LIVER S-9, PHENOBARBITAL, Method: STANDARD PLATE): inactive; negative
mutagenic call (Strain/Indicator: TA98, Metabolic Activation: GUINEA PIG, LIVER, S-9, PCB, Method: PREINCUBATION): inactive; negative
mutagenic call (Strain/Indicator: TA98, Metabolic Activation: HAMSTER, LIVER, S-9, PCB, Method: PREINCUBATION): inactive; negative
mutagenic call (Strain/Indicator: TA98, Metabolic Activation: MOUSE, LIVER, S-9, PCB, Method: PREINCUBATION): inactive; negative
mutagenic call [2]: inactive; negative
mutagenic call [3]: inactive; negative
mutagenic call (Strain/Indicator: TA98, Metabolic Activation: RAT LIVER S-9, PHENOBARBITAL, Method: STANDARD PLATE): inactive; negative
mutagenic call [4]: inactive; negative
mutagenic call (Strain/Indicator: TA98, Metabolic Activation: RAT, LIVER, S-9, PCB, Method: PREINCUBATION): inactive; negative
mutagenic call (Strain/Indicator: TA100, Metabolic Activation: GUINEA PIG, LIVER, S-9, PCB, Method: PREINCUBATION): inactive; negative
mutagenic call (Strain/Indicator: TA100, Metabolic Activation: HAMSTER, LIVER, S-9, PCB, Method: PREINCUBATION): inactive; negative
mutagenic call (Strain/Indicator: TA100, Metabolic Activation: MOUSE, LIVER, S-9, PCB, Method: PREINCUBATION): inactive; negative
mutagenic call (Strain/Indicator: TA100, Metabolic Activation: NONE, Method: PREINCUBATION): inactive; negative
mutagenic call [5]: inactive; negative
mutagenic call (Strain/Indicator: TA100, Metabolic Activation: RAT LIVER S-9, PHENOBARBITAL, Method: STANDARD PLATE): inactive; negative
mutagenic call [6]: inactive; negative
mutagenic call (Strain/Indicator: TA100, Metabolic Activation: RAT, LIVER, S-9, PCB, Method: PREINCUBATION): inactive; negative
mutagenic call (Strain/Indicator: TA102, Metabolic Activation: NONE, Method: STANDARD PLATE): inactive; negative
mutagenic call (Strain/Indicator: TA102, Metabolic Activation: RAT LIVER S-9, PHENOBARBITAL, Method: STANDARD PLATE): inactive; negative
mutagenic call (Strain/Indicator: TA102, Metabolic Activation: RAT, LIVER, S-9, AROCLOR 1254, Method: STANDARD PLATE): inactive; negative
mutagenic call (Strain/Indicator: TA104, Metabolic Activation: NONE, Method: STANDARD PLATE): inactive; negative
mutagenic call (Strain/Indicator: TA104, Metabolic Activation: RAT, LIVER, S-9, AROCLOR 1254, Method: STANDARD PLATE): inactive; negative

CCN(CCCl)CCCNc1c2ccccc2nc2ccccc12
mutagenic call [3]: active; positive
mutagenic call [5]: active; positive
mutagenic call [7]: inactive; negative
mutagenic call (Strain/Indicator: TA1536, Metabolic Activation: NONE, Method: STANDARD PLATE): active; positive
mutagenic call [8]: active; positive
mutagenic call [9]: active; positive

Cc1cc(C(O)c2ncc([N+](=O)[O-])n2C)c(O)c(C(C)(C)C)c1 (stereo not drawn)
mutagenic call [3]: inactive; negative
mutagenic call [4]: inactive; negative
mutagenic call [5]: inactive; negative
mutagenic call [6]: inactive; negative
mutagenic call [7]: inactive; negative
mutagenic call (Strain/Indicator: TA1535, Metabolic Activation: RAT, LIVER, S-9, AROCLOR 1254, Method: STANDARD PLATE): inactive; negative
mutagenic call [8]: inactive; negative
mutagenic call (Strain/Indicator: TA1537, Metabolic Activation: RAT, LIVER, S-9, AROCLOR 1254, Method: STANDARD PLATE): inactive; negative
mutagenic call [9]: inactive; negative
mutagenic call (Strain/Indicator: TA1538, Metabolic Activation: RAT, LIVER, S-9, AROCLOR 1254, Method: STANDARD PLATE): inactive; negative

O=C(NCCCl)Sc1ncnc2nc[nH]c12
mutagenic call [1]: inactive; negative
mutagenic call (Strain/Indicator: TA97, Metabolic Activation: RAT, LIVER, S-9, PHENOBARBITAL AND ALPHA-NAPHTHOFLAVONE, Method: STANDARD PLATE): inactive; negative
mutagenic call [3]: inactive; negative
mutagenic call (Strain/Indicator: TA98, Metabolic Activation: RAT, LIVER, S-9, PHENOBARBITAL AND ALPHA-NAPHTHOFLAVONE, Method: STANDARD PLATE): inactive; negative
mutagenic call [5]: inactive; negative
mutagenic call (Strain/Indicator: TA100, Metabolic Activation: RAT, LIVER, S-9, PHENOBARBITAL AND ALPHA-NAPHTHOFLAVONE, Method: STANDARD PLATE): inactive; negative
mutagenic call [7]: active; positive
mutagenic call (Strain/Indicator: TA1535, Metabolic Activation: RAT, LIVER, S-9, PHENOBARBITAL AND ALPHA-NAPHTHOFLAVONE, Method: STANDARD PLATE): active; positive

ClCc1c2ccccc2c2ccc3cccc4ccc1c2c43
mutagenic call [3]: inactive; negative
mutagenic call [5]: inactive; negative

Nc1ccc2ccc3ccccc3c2c1
mutagenic call (Strain/Indicator: TA98, Metabolic Activation: RAT, LIVER, S-9, AROCLOR 1254 (2 OR 4%), Method: STANDARD PLATE): active; positive
mutagenic call (Strain/Indicator: TA100, Metabolic Activation: RAT, LIVER, S-9, AROCLOR 1254 (2%), Method: STANDARD PLATE): active; positive
mutagenic call (Strain/Indicator: TA1535, Metabolic Activation: RAT, LIVER, S-9, AROCLOR 1254 (2%), Method: STANDARD PLATE): active; positive
mutagenic call (Strain/Indicator: TA1537, Metabolic Activation: RAT, LIVER, S-9, AROCLOR 1254 (2%), Method: STANDARD PLATE): active; positive

NC1CCC(N)CC1 (stereo not drawn)
mutagenic call [1]: inactive; negative
mutagenic call (Strain/Indicator: TA97, Metabolic Activation: RAT, LIVER, S-9, Method: STANDARD PLATE): inactive; negative
mutagenic call [3]: inactive; negative
mutagenic call (Strain/Indicator: TA98, Metabolic Activation: RAT, LIVER, S-9, Method: STANDARD PLATE): inactive; negative
mutagenic call [5]: inactive; negative
mutagenic call (Strain/Indicator: TA100, Metabolic Activation: RAT, LIVER, S-9, Method: STANDARD PLATE): inactive; negative
mutagenic call [7]: inactive; negative
mutagenic call (Strain/Indicator: TA1535, Metabolic Activation: RAT, LIVER, S-9, Method: STANDARD PLATE): inactive; negative

Cc1ncc([N+](=O)[O-])n1CC(=O)O
mutagenic call [5]: active; positive
mutagenic call [6]: inactive; negative

O=CN(O)c1ccc2ccccc2c1
mutagenic call [2]: active; positive
mutagenic call (Strain/Indicator: TA98, Metabolic Activation: RAT, LIVER, CYTOSOL, Method: PREINCUBATION): active; positive
mutagenic call (Strain/Indicator: TA98, Metabolic Activation: RAT, LIVER, MICROSOMES, Method: PREINCUBATION): active; positive
